Among the data in US10683293B2, “Optionally fused heterocyclyl-substituted derivatives of pyrimidine useful for the treatment of inflammatory, metabolic, oncologic and autoimmune diseases” (NUEVOLUTION A/S, priority 2014, dated 2020) are IC50 values, retold here.

In this experiment the target is T1, human RORγt (Ligand Binding Domain) (Homo sapiens, UniProt P51449).
T1 construct: purchased Crelux (Planegg, Germany) batch no PC5032-1
T1 sequence (P51449 269-508 limits assumed): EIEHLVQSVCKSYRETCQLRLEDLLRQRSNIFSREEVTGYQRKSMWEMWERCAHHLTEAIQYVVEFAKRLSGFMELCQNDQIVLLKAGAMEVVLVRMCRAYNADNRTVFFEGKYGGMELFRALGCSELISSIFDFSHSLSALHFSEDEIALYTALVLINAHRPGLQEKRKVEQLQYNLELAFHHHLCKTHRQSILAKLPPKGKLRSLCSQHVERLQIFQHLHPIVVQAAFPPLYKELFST
Put plainly: Fluorescence Polarization (FP) Assay. The note with it: 100 nM human RORγt LBD, 25 nM TAMRA probe, values are activity range bounds. As for the experimental part:
The activity of the compounds was evaluated using a Fluorescence Polarization (FP) Assay and, RORγ Reporter assay (also referred to as Gal4 assay). The FP assay is an in vitro assay monitoring binding within the ligand binding pocket. The RORγ and the Th17 assays (another suitable assay) are both cell-based assays monitoring functional activity of the compound assayed.
Fluorescence Polarization (FP) Assay
The total volume was 25 μl, in a black Perkin Elmer OptiPlate. As negative control, 1 μl DMSO was used. […] The probe is a fluorescently labeled (TAMRA) RORγt ligand identified by Nuevolution with a total molecular weight of 910 g/mole as shown in Graph A in FIG. 1.
A general note: Fluorescence polarisation rises when a labelled molecule tumbles more slowly, as on binding a larger partner.
The term IC50 denotes the concentration needed to halve the response being measured. `CS(=O)(=O)c1ccc(CNc2ncnc(N(Cc3ccc(C(F)(F)F)cn3)C3CC3)c2F)nc1` [Example A115, N4-cyclopropyl-5-fluoro-N6-[(5-methylsulfonyl-2-pyridyl)methyl]-N4-[[5-(trifluoromethyl)-2-pyridyl]methyl]pyrimidine-4,6-diamine]: the IC50 was less than 500 nM. On to `CCN(Cc1cccc2c1OCO2)c1ncnc(NCc2ccc(CC(N)=O)cc2)c1F` [Example A126, 2-[4-[[[6-[1,3-benzodioxol-4-ylmethyl(ethyl)amino]-5-fluoro-pyrimidin-4-yl]amino]methyl]phenyl]acetamide], for which the half-maximal inhibitory concentration (IC50) was less than 500 nM. `COc1cc(CNc2ncnc(N(Cc3ccc(C(F)(F)F)cc3)C3CC3)c2F)ccn1` [Example A38, N4-cyclopropyl-5-fluoro-N6-[(2-methoxy-4-pyridyl)methyl]-N4-[[4-(trifluoromethyl)phenyl]methyl] pyrimidine-4,6-diamine] showed an IC50 of less than 500 nM.

Turning to `O=S(=O)(Nc1ccc(CNc2ncnc(N(Cc3ccc(C(F)(F)F)nc3)C3CC3)c2F)cc1)C(F)F` [Example A105, N-[4-[[[6-[cyclopropyl-[[6-(trifluoromethyl)-3-pyridyl]methyl]amino]-5-fluoro-pyrimidin-4-yl]amino]methyl]phenyl]-1,1-difluoro-methanesulfonamide], the IC50 was less than 10000 nM.

Molecule `NC(=O)C1CC(CNc2ncnc(N(Cc3ccc(C(F)(F)F)cc3)C3CC3)c2F)C1` (stereo not shown) [Example A96, 3-[[[6-[cyclopropyl-[[4-(trifluoromethyl)phenyl]methyl]amino]-5-fluoro-pyrimidin-4-yl]amino]methyl]cyclobutane-carboxamide] registered a concentration for half-maximal inhibition (IC50) of less than 10000 nM. Next, `CN(Cc1ccccc1OC(F)(F)F)c1ncnc(NCc2ccc(CC(N)=O)cc2)c1F` [Example A122, 2-[4-[[[5-fluoro-6-[methyl-[[2-(trifluoromethoxy)phenyl]methyl]amino]pyrimidin-4-yl]amino]methyl]phenyl]acetamide]: less than 500 nM; `CS(=O)(=O)c1ccc(CNc2ncnc(N(Cc3ccc(C(F)(F)F)nc3)C3CC3)c2F)nc1` [Example A114, N4-cyclopropyl-5-fluoro-N6-[(5-methylsulfonyl-2-pyridyl)methyl]-N4-[[6-(trifluoromethyl)-3-pyridyl]methyl]pyrimidine-4,6-diamine]: less than 500 nM; `N#CNC(=O)c1ccc(CNc2ncnc(N(Cc3ccc(C(F)(F)F)cc3)C3CC3)c2F)cc1` [Example A84, N-cyano-4-[[[6-[cyclopropyl-[[4-(trifluoromethyl)phenyl]methyl]amino]-5-fluoro-pyrimidin-4-yl]amino]methyl]benzamide]: less than 500 nM.

Consider `Fc1c(NCc2ccncc2)ncnc1N(Cc1ccc(C(F)(F)F)cc1)C1CC1` [Example A41, N4-cyclopropyl-5-fluoro-N6-(4-pyridylmethyl)-N4-[[4-(trifluoromethyl)phenyl]methyl] pyrimidine-4,6-diamine], for which the IC50 was less than 500 nM. Next, `NC(=O)Cc1ccc(CNc2ncnc(N(Cc3ccc(C(F)(F)F)cc3)C3CC3)c2F)nc1` [Example A177, 2-[6-[[[6-[cyclopropyl-[[4-(trifluoromethyl)phenyl]methyl]amino]-5-fluoro-pyrimidin-4-yl]amino]methyl]-3-pyridyl]acetamide]: less than 2000 nM. Next, `Fc1c(NCC2CCCS2)ncnc1N(Cc1ccc(C(F)(F)F)cc1)C1CC1` (stereo not shown) [Example A28, N6-cyclopropyl-5-fluoro-N4-(tetrahydrothiophen-2-ylmethyl)-N6-[[4-(trifluoromethyl)phenyl]methyl] pyrimidine-4,6-diamine]: less than 1000 nM. Next, `COCCNS(=O)(=O)c1ccc(CNc2ncnc(N(C)Cc3ccc(-n4cccn4)cc3)c2F)cc1` [Example A136, 4-[[[5-fluoro-6-[methyl-[(4-pyrazol-1-ylphenyl)methyl]amino]pyrimidin-4-yl]amino]methyl]-N-(2-methoxyethyl)benzenesulfonamide]: less than 2000 nM; `Fc1c(NCc2ccccc2)ncnc1N(Cc1ccc(C(F)(F)F)cc1)C1CC1` [Example A40, N6-benzyl-N4-cyclopropyl-5-fluoro-N4-[[4-(trifluoromethyl)phenyl]methyl] pyrimidine-4,6-diamine]: less than 1000 nM; `CN(Cc1cccc(OC(F)(F)F)c1)c1ncnc(NCc2ccc(CC(N)=O)cc2)c1F` [Example A128, 2-[4-[[[5-fluoro-6-[methyl-[[3-(trifluoromethoxy)phenyl]methyl]amino]pyrimidin-4-yl]amino]methyl]phenyl]acetamide]: less than 500 nM.

In turn, `CN(Cc1ccc(-n2cccn2)cc1)c1ncnc(NCC2(CCO)CCOCC2)c1F` [Example A132, 2-[4-[[[5-fluoro-6-[methyl-[(4-pyrazol-1-ylphenyl)methyl]amino]pyrimidin-4-yl]amino]methyl]tetrahydropyran-4-yl]ethanol] showed an IC50 of less than 10000 nM. Next, `O=C(O)CC1CCC(CNc2ncnc(N(Cc3ccc(C(F)(F)F)cc3)C3CC3)c2F)CC1` (stereo not shown) [Example A36, 2-[4-[[[6-[cyclopropyl-[[4-(trifluoromethyl)phenyl]methyl]amino]-5-fluoro-pyrimidin-4-yl]amino]methyl]cyclohexyl]acetic acid]: less than 500 nM; `CS(=O)(=O)CC1(CNc2ncnc(N(Cc3ccc(C(F)(F)F)cc3)C3COC3)c2F)CCOCC1` [Example A45, 5-fluoro-N6-[[4-(methylsulfonylmethyl)tetrahydro-pyran-4-yl]methyl]-N4-(oxetan-3-yl)-N4-[[4-(trifluoromethyl)phenyl]methyl] pyrimidine-4,6-diamine]: less than 2000 nM. The same measure for `CS(=O)(=O)N1CCC(C(=O)Nc2ncnc(N(Cc3ccc(C(F)(F)F)cc3)C3CC3)c2F)CC1` [Example A100, N-[6-[cyclopropyl-[[4-(trifluoromethyl)phenyl]methyl]amino]-5-fluoro-pyrimidin-4-yl]-1-methylsulfonyl-piperidine-4-carboxamide]: less than 10000 nM; for `Fc1c(NCc2ccc(-c3nnn[nH]3)cc2)ncnc1N(Cc1ccc(C(F)(F)F)cc1)C1CC1` [Example A23, N6-cyclopropyl-5-fluoro-N4-[[4-(1H-tetrazol-5-yl)phenyl]methyl]-N6-[[4-(trifluoromethyl)phenyl]methyl] pyrimidine-4,6-diamine]: less than 500 nM; for `CS(=O)(=O)N1CC(CNc2ncnc(N(Cc3ccc(C(F)(F)F)cn3)C3CC3)c2F)C1` [Example A173, N4-cyclopropyl-5-fluoro-N6-[(1-methylsulfonylazetidin-3-yl)methyl]-N4-[[5-(trifluoromethyl)-2-pyridyl]methyl]pyrimidine-4,6-diamine]: less than 10000 nM. The same measure for `NC(=O)Cc1ccc(CNc2ncnc(N(Cc3cccc(-n4cncn4)c3)C3CC3)c2F)cc1` [Example A161, 2-[4-[[[6-[cyclopropyl-[[3-(1,2,4-triazol-1-yl)phenyl]methyl]amino]-5-fluoro-pyrimidin-4-yl]amino]methyl]phenyl]acetamide]: less than 500 nM; for `COC1(CNc2ncnc(N(Cc3ccc(C(F)(F)F)cc3)C3CC3)c2F)CCOCC1` [Example A29, N6-cyclopropyl-5-fluoro-N4-[(4-methoxytetrahydropyran-4-yl)methyl]-N6-[[4-(trifluoromethyl)phenyl]methyl] pyrimidine-4,6-diamine]: less than 500 nM.
